Measured values as given in patent US4552877A, “Nb -Quaternary derivatives of sandwicine and isosandwicine methods and intermediate products in the manufacture of their derivatives and methods of using same and pharmaceutical compositions thereof” (Kali-Chemie Pharma GmbH, priority 1979, dated 1985).
Structures can show the parent of a compound that is named as a salt. Where two headings read alike, the source gives them in different places.

Key:
[1] = acute toxicity (LD50, 7th day after application); type: in vivo, mouse; details: mouse, in vivo, male NMRI-mice, mortality on 7th day
Protocol: (§1) The acute toxicity of the compounds is determined in male NMRI-mice (body weight range 18-22 g) after oral (p.o) and intraperitonal (i.p.) administration. The LD50 is defined as that dose in μmole/kg which causes a 50% mortality rate of the test animals on the 7th day after application. The calculation of the LD50 is carried out by probitanalysis (see L. Cavalli-Sforza, Grundbegriffe der Biometrie, Gustav Fischer Verlag, Stuttgart, (1964)).

[2] = tested on: male NMRI-mice; experiment: minimum symptom dose (procedure of Campbell and Richter); type: in vivo, mouse; details: i.p., changes in behavior in 2 out of 3 mice
Protocol: The minimum symptom dose is determined in male NMRI-mice (body weight range 18-22 g) according to the procedure of Campbell and Richter (see D.E.S. Campbell and W. Richter, Acta Pharmacol Toxicol, 25 (1967), pp 345-363). The minimum symptom dose is defined as that dose in μmol/kg which after i.p. administration causes changes in behavior in 2 out of 3 mice. The minimum symptom dose is a measure for evaluating undesirable side effects.

[3] = tested on: isolated left atria of female guinea pigs; experiment: functional refractory period (FRP) and contraction force (CF) in isolated left atria, double stimulus method of Govier; parameters: species or system guinea pig; details: for IC25 / EC25: Cavia porcellus, 0.3 h; for IC25: read-out: CF (concentration reducing contraction force to 75% of starting value); for EC25: read-out: FRP (concentration prolonging functional refractory period to 125% of starting value); for ratio between contraction force-reducing dose and functional refractory period-prolonging dose (CF/FRP): indication of the therapeutic range of the antiarrhythmic effect on the isolated organ, 18 min
Protocol: The prolongation of the functional refractory period (FRP) and the contraction force (CF) in the isolated left atria of female guinea pigs (albino Pirbright-white guinea pigs, body weight 300-400 g) are determined according to the double stimulus method of Govier (see W.C. Govier, J. Pharmakol. Exp. Ther. 148 (1965) pp 100-105). The concentrations which are given in the table below are the concentrations in μmol/l which 18 minutes after application leads to a prolongation of the functional refractory period to 125% or respectively to a reduction of the contraction force to 75% of the starting value. Furthermore, the ratio between contraction force-reducing dose and functional refractory period-prolonging dose is given. This ratio is an indication of the therapeutic range of the antiarrhythmic effect on the isolate organ (see K. Gref, Verh. Dtsch. Ges. Kreislaufforsch. 35 (1969) pp 88-97).

[4] = tested on: male NMRI-mice; experiment: acute toxicity (LD50, 7th day after application); type: in vivo, mouse; details: mortality on 7th day, 10080 min; for LD50 p.o.: oral
Protocol: as §1

[5] = ip, intraperitoneal, read-out: LD50 i.p.
[6] = isolated guinea pig left atria, 18 minutes after application

For `CCC1C2CC3C4N(C)c5ccc(Br)cc5C45CC(C2C5O)[N+]3(C)C1O` (stereo not drawn) [Example 1.b, Nb-methyl-10-bromosandwicinium hydrogen tartrate], which LD50 at 168 h [1, 5] is on record?
Its LD50 at 168 h is 325 µmol/kg.

And the LD50 at 168 h ([1]; po, read-out: LD50 p.o.)?
The LD50 at 168 h was 1910 µmol/kg.

And the “Min. Symptom-dose” value [2]?
Its value is 11 µmol/kg.

What about the IC25 [3, 6] of the same compound?
Its IC25 is 20.2 µM.

What about the EC25 [3, 6] of the same compound?
Its EC25 is 3.2 µM.

What about the “ratio between contraction force-reducing dose and functional refractory period-prolonging dose (CF/FRP)” value [3] of the same compound?
The value was 6.4.

Which LD50 at 168 h [1, 5] does the source give for `CCC[N+]12C(O)C(CC)C3CC1C1N(C)c4ccccc4C14CC2C3C4O` (stereo not drawn) [Neo-Gilurytmal, Nb -propylajmalinium hydrogen tartrate, reference compound] here?
Its LD50 at 168 h is 41 µmol/kg.

And the LD50 at 168 h ([1]; po, read-out: LD50 p.o.)?
Its LD50 at 168 h is 65 µmol/kg.

And the “Min. Symptom-dose” value [2]?
The value was 12 µmol/kg.

And the IC25 [3, 6]?
Its IC25 is 0.26 µM.

And the EC25 [3, 6]?
The EC25 was 1.8 µM.

What about the “ratio between contraction force-reducing dose and functional refractory period-prolonging dose (CF/FRP)” value [3] of the same compound?
The value was 0.15.

Which results are given for `CCC[N+]12C(O)C(CC)C3CC1C1N(C)c4ccc(Br)cc4C14CC2C3C4O` (stereo not drawn) [Example 2.b, Nb-n-propyl-10-bromosandwicinium hydrogen tartrate]?
LD50 at 168 h [1, 5]: 101 µmol/kg; LD50 p.o. [4]: 1133 µmol/kg; Min. Symptom-dose [2]: 42 µmol/kg; IC25 [3, 6]: 4.7 µM; EC25 [3, 6]: 1.4 µM; ratio between contraction force-reducing dose and functional refractory period-prolonging dose (CF/FRP) [3]: 3.3

Which results are given for `CCC1C2CC3C4N(C)c5ccc(Br)cc5C45CC(C2C5O)[N+]3(CC(O)CN2CCCCC2)C1O` (stereo not drawn) [Example 8, Nb-[2-hydroxy-3-(1-piperidinyl)propyl]-10-bromosandwicinium bishydrogen tartrate]?
LD50 at 168 h [1, 5]: 169 µmol/kg; LD50 at 168 h ([1]; po, read-out: LD50 p.o.): 1190 µmol/kg; Min. Symptom-dose [2]: 59 µmol/kg; IC25 [3, 6]: 3.4 µM; EC25 [3, 6]: 8.3 µM; ratio between contraction force-reducing dose and functional refractory period-prolonging dose (CF/FRP) [3]: 0.4

What does the source list for `CCC[N+]12C(O)C(CC)C3CC1C1N(C)c4ccc(Br)cc4C14CC2C3C4O` (stereo not drawn) [Example 12.b, Nb-n-propyl-10-bromoisosandwicinium hydrogen tartrate]?
LD50 i.p. ([4]; intraperitoneal): 118 µmol/kg; LD50 p.o. [4]: 566 µmol/kg; Min. Symptom-dose [2]: 10 µmol/kg; ratio between contraction force-reducing dose and functional refractory period-prolonging dose (CF/FRP) [3]: 3.6; CF (concentration reducing contraction force to 75% of starting value) [3, 6]: 6.5 µmol/L; FRP (concentration prolonging functional refractory period to 125% of starting value) [3, 6]: 1.8 µmol/L

With `CCCCCC[N+]12C(O)C(CC)C3CC1C1N(C)c4ccc(Br)cc4C14CC2C3C4O` (stereo not drawn) [Example 4.b, Nb-n-hexyl-10-bromosandwicinium hydrogen tartrate] as the compound, how does the LD50 at 168 h [1, 5] read?
Its LD50 at 168 h is 112 µmol/kg.

And the LD50 at 168 h ([1]; po, read-out: LD50 p.o.)?
The LD50 at 168 h was over 2300 µmol/kg.

And the “Min. Symptom-dose” value [2]?
The value was 39 µmol/kg.

What about the IC25 [3, 6] of the same compound?
The IC25 was 2 µM.

And the EC25 [3, 6]?
Its EC25 is 4.3 µM.

And the “ratio between contraction force-reducing dose and functional refractory period-prolonging dose (CF/FRP)” value [3]?
Its value is 0.5.
